The source made the active and inactive calls.
What was measured:
Format in all cases: functional, organism-based
Staphylococcus aureus = assay: Antimicrobial activity against Staphylococcus aureus
Shigella sonnei = assay: Antimicrobial activity against Shigella sonnei
[1] = test system: Salmonella enterica subsp. enterica serovar Typhi str. CT18; assay: Antimicrobial activity against Salmonella typhi
Streptococcus pyogenes = assay: Antimicrobial activity against Streptococcus pyogenes

Measured: Activity

CCCCO[C@]1(OC)C(Br)=C[C@@](O)(CC(N)=O)C=C1Br
inactive: all assays above

CCCCCO[C@]1(OC)C(Br)=C[C@@](O)(CC(N)=O)C=C1Br
inactive: all assays above

COc1c(Br)cc2c(c1Br)OC(=O)C2=C(C)C
inactive: all assays above

COc1c(Br)cc2c(c1Br)OC(=N)C2
inactive: all assays above

From ChEMBL document CHEMBL1151150, “Brominated Metabolites from the Sponge Aplysina (verongia) thiona” (J Nat Prod, 1990)
